Laboratory results reported in patent US20050009005A1, “Methods of using quantitative lipid metabolome data” (Lipomics Technologies, Inc., priority 2001, published 2005).
Like-named read-outs stand apart in the source and are kept apart here.

System: de novo fatty acid synthesis
[1] = Liver, CE, mean of treated mice
[2] = Liver, FFA, mean of treated mice
[3] = Liver, PC, mean of treated mice
[4] = Liver, PS/I, mean of treated mice
[5] = Liver, TAG, mean of treated mice
[6] = Plasma, CE, mean of treated mice
[7] = Plasma, FFA, mean of treated mice
[8] = Plasma, PC, mean of treated mice
[9] = Plasma, PL, mean of treated mice
[10] = Plasma, TAG, mean of treated mice

CN(CCOc1ccc(CC2SC(=O)NC2=O)cc1)c1ccccn1 (stereo not drawn) [rosiglitazone]
18:0 [1]: 204.4 nanomoles per gram
18:1n7 [1]: 138.6 nanomoles per gram
18:1n9 [1]: 1208.0 nanomoles per gram
Saturates [1]: 3147.2 nanomoles per gram
Total n7 [1]: 817.0 nanomoles per gram
Total n9 [1]: 1239.5 nanomoles per gram
Total nMole of [1]: 5830.7 nanomoles per gram
14:0 (Liver, CL, mean): 0.5 percentage of total fatty acids within each lipid class
16:0 (Liver, CL, mean): 5.7 percentage of total fatty acids within each lipid class
16:1n7 (Liver, CL, mean): 6.3 percentage of total fatty acids within each lipid class
18:0 (Liver, CL, mean): 3.6 percentage of total fatty acids within each lipid class
18:1n7 (Liver, CL, mean): 5.5 percentage of total fatty acids within each lipid class
18:1n9 (Liver, CL, mean): 10.0 percentage of total fatty acids within each lipid class
Saturates (Liver, CL, mean): 10.6 percentage of total fatty acids within each lipid class
Total (Liver, CL, mean): 100.0 percentage of total fatty acids within each lipid class
Total n7 (Liver, CL, mean): 11.8 percentage of total fatty acids within each lipid class
Total n9 (Liver, CL, mean): 10.5 percentage of total fatty acids within each lipid class
14:0 (Liver, FFA, mean): 1.0 percentage of total fatty acids within each lipid class
16:0 (Liver, FFA, mean): 19.9 percentage of total fatty acids within each lipid class
16:1n7 (Liver, FFA, mean): 9.4 percentage of total fatty acids within each lipid class
18:0 (Liver, FFA, mean): 3.0 percentage of total fatty acids within each lipid class
18:1n7 (Liver, FFA, mean): 6.4 percentage of total fatty acids within each lipid class
18:1n9 (Liver, FFA, mean): 25.4 percentage of total fatty acids within each lipid class
Saturates (Liver, FFA, mean): 24.4 percentage of total fatty acids within each lipid class
Total (Liver, FFA, mean): 100.0 percentage of total fatty acids within each lipid class
Total n7 (Liver, FFA, mean): 15.8 percentage of total fatty acids within each lipid class
Total n9 (Liver, FFA, mean): 26.0 percentage of total fatty acids within each lipid class
14:0 [2]: 236.5 nanomoles per gram
16:0 [2]: 4507.0 nanomoles per gram
16:1n7 [2]: 2121.2 nanomoles per gram
18:0 [2]: 691.5 nanomoles per gram
18:1n7 [2]: 1466.0 nanomoles per gram
18:1n9 [2]: 5761.2 nanomoles per gram
Saturates [2]: 5541.5 nanomoles per gram
Total n7 [2]: 3587.3 nanomoles per gram
Total n9 [2]: 5909.9 nanomoles per gram
Total nMole of [2]: 22631.3 nanomoles per gram
14:0 (Liver, PC, mean): 0.2 percentage of total fatty acids within each lipid class
16:0 (Liver, PC, mean): 33.3 percentage of total fatty acids within each lipid class
16:1n7 (Liver, PC, mean): 1.7 percentage of total fatty acids within each lipid class
18:0 (Liver, PC, mean): 10.3 percentage of total fatty acids within each lipid class
18:1n7 (Liver, PC, mean): 4.6 percentage of total fatty acids within each lipid class
18:1n9 (Liver, PC, mean): 9.6 percentage of total fatty acids within each lipid class
Saturates (Liver, PC, mean): 44.1 percentage of total fatty acids within each lipid class
Total (Liver, PC, mean): 100.0 percentage of total fatty acids within each lipid class
Total n7 (Liver, PC, mean): 6.4 percentage of total fatty acids within each lipid class
Total n9 (Liver, PC, mean): 10.2 percentage of total fatty acids within each lipid class
14:0 [3]: 43.2 nanomoles per gram
16:0 [3]: 9572.4 nanomoles per gram
16:1n7 [3]: 501.3 nanomoles per gram
18:0 [3]: 2975.6 nanomoles per gram
18:1n7 [3]: 1329.1 nanomoles per gram
18:1n9 [3]: 2767.4 nanomoles per gram
Saturates [3]: 12686.5 nanomoles per gram
Total n7 [3]: 1830.5 nanomoles per gram
Total n9 [3]: 2932.3 nanomoles per gram
Total nMole of [3]: 14390.8 nanomoles per gram
14:0 (Liver, PS/I, mean): 0.2 percentage of total fatty acids within each lipid class
16:0 (Liver, PS/I, mean): 11.1 percentage of total fatty acids within each lipid class
16:1n7 (Liver, PS/I, mean): 0.7 percentage of total fatty acids within each lipid class
18:0 (Liver, PS/I, mean): 32.3 percentage of total fatty acids within each lipid class
18:1n7 (Liver, PS/I, mean): 2.9 percentage of total fatty acids within each lipid class
18:1n9 (Liver, PS/I, mean): 6.7 percentage of total fatty acids within each lipid class
Saturates (Liver, PS/I, mean): 44.2 percentage of total fatty acids within each lipid class
Total (Liver, PS/I, mean): 100.0 percentage of total fatty acids within each lipid class
Total n7 (Liver, PS/I, mean): 3.6 percentage of total fatty acids within each lipid class
Total n9 (Liver, PS/I, mean): 8.2 percentage of total fatty acids within each lipid class
14:0 [4]: 18.9 nanomoles per gram
16:0 [4]: 1158.5 nanomoles per gram
16:1n7 [4]: 76.0 nanomoles per gram
18:0 [4]: 3348.9 nanomoles per gram
18:1n7 [4]: 303.2 nanomoles per gram
18:1n9 [4]: 693.2 nanomoles per gram
Saturates [4]: 4590.1 nanomoles per gram
Total n7 [4]: 379.2 nanomoles per gram
Total n9 [4]: 854.3 nanomoles per gram
Total nMole of [4]: 5196.5 nanomoles per gram
14:0 (Liver, TAG, mean): 0.5 percentage of total fatty acids within each lipid class
16:0 (Liver, TAG, mean): 27.1 percentage of total fatty acids within each lipid class
16:1n7 (Liver, TAG, mean): 8.1 percentage of total fatty acids within each lipid class
18:0 (Liver, TAG, mean): 0.6 percentage of total fatty acids within each lipid class
18:1n7 (Liver, TAG, mean): 5.8 percentage of total fatty acids within each lipid class
18:1n9 (Liver, TAG, mean): 39.6 percentage of total fatty acids within each lipid class
Saturates (Liver, TAG, mean): 28.6 percentage of total fatty acids within each lipid class
Total (Liver, TAG, mean): 100.0 percentage of total fatty acids within each lipid class
Total n7 (Liver, TAG, mean): 13.9 percentage of total fatty acids within each lipid class
Total n9 (Liver, TAG, mean): 40.5 percentage of total fatty acids within each lipid class
14:0 [5]: 2450.8 nanomoles per gram
16:0 [5]: 122013.9 nanomoles per gram
16:1n7 [5]: 36411.0 nanomoles per gram
18:0 [5]: 2665.4 nanomoles per gram
18:1n7 [5]: 26279.6 nanomoles per gram
18:1n9 [5]: 179035.8 nanomoles per gram
Saturates [5]: 129102.3 nanomoles per gram
Total n7 [5]: 62690.6 nanomoles per gram
Total n9 [5]: 183105.4 nanomoles per gram
Total nMole of [5]: 150412.8 nanomoles per gram
14:0 (Plasma, CE, mean): 0.6 percentage of total fatty acids within each lipid class
16:0 (Plasma, CE, mean): 3.7 percentage of total fatty acids within each lipid class
16:1n7 (Plasma, CE, mean): 6.5 percentage of total fatty acids within each lipid class
18:0 (Plasma, CE, mean): 0.2 percentage of total fatty acids within each lipid class
18:1n7 (Plasma, CE, mean): 0.7 percentage of total fatty acids within each lipid class
18:1n9 (Plasma, CE, mean): 6.1 percentage of total fatty acids within each lipid class
Saturates (Plasma, CE, mean): 4.9 percentage of total fatty acids within each lipid class
Total (Plasma, CE, mean): 100.0 percentage of total fatty acids within each lipid class
Total n7 (Plasma, CE, mean): 7.3 percentage of total fatty acids within each lipid class
Total n9 (Plasma, CE, mean): 6.6 percentage of total fatty acids within each lipid class
14:0 [6]: 16.8 nanomoles per gram
16:0 [6]: 113.0 nanomoles per gram
16:1n7 [6]: 200.8 nanomoles per gram
18:0 [6]: 7.1 nanomoles per gram
18:1n7 [6]: 22.7 nanomoles per gram
18:1n9 [6]: 189.1 nanomoles per gram
Saturates [6]: 148.8 nanomoles per gram
Total n7 [6]: 223.4 nanomoles per gram
Total n9 [6]: 202.2 nanomoles per gram
Total nMole of [6]: 3058.7 nanomoles per gram
14:0 (Plasma, FFA, mean): 3.3 percentage of total fatty acids within each lipid class
16:0 (Plasma, FFA, mean): 30.9 percentage of total fatty acids within each lipid class
16:1n7 (Plasma, FFA, mean): 8.3 percentage of total fatty acids within each lipid class
18:0 (Plasma, FFA, mean): 8.1 percentage of total fatty acids within each lipid class
18:1n7 (Plasma, FFA, mean): 3.2 percentage of total fatty acids within each lipid class
18:1n9 (Plasma, FFA, mean): 18.4 percentage of total fatty acids within each lipid class
Saturates (Plasma, FFA, mean): 43.8 percentage of total fatty acids within each lipid class
Total (Plasma, FFA, mean): 100.0 percentage of total fatty acids within each lipid class
Total n9 (Plasma, FFA, mean): 18.9 percentage of total fatty acids within each lipid class
14:0 [7]: 15.9 nanomoles per gram
16:0 [7]: 148.4 nanomoles per gram
16:1n7 [7]: 41.4 nanomoles per gram
18:0 [7]: 37.3 nanomoles per gram
18:1n7 [7]: 15.2 nanomoles per gram
18:1n9 [7]: 90.2 nanomoles per gram
Saturates [7]: 208.8 nanomoles per gram
Total n7 [7]: 56.7 nanomoles per gram
Total n9 [7]: 92.7 nanomoles per gram
Total nMole of [7]: 478.4 nanomoles per gram
14:0 (Plasma, PC, mean): 0.1 percentage of total fatty acids within each lipid class
16:0 (Plasma, PC, mean): 30.8 percentage of total fatty acids within each lipid class
16:1n7 (Plasma, PC, mean): 0.8 percentage of total fatty acids within each lipid class
18:0 (Plasma, PC, mean): 13.0 percentage of total fatty acids within each lipid class
18:1n7 (Plasma, PC, mean): 4.1 percentage of total fatty acids within each lipid class
18:1n9 (Plasma, PC, mean): 9.4 percentage of total fatty acids within each lipid class
Saturates (Plasma, PC, mean): 44.6 percentage of total fatty acids within each lipid class
Total (Plasma, PC, mean): 100.0 percentage of total fatty acids within each lipid class
Total n7 (Plasma, PC, mean): 4.9 percentage of total fatty acids within each lipid class
Total n9 (Plasma, PC, mean): 9.9 percentage of total fatty acids within each lipid class
14:0 [8]: 5.7 nanomoles per gram
16:0 [8]: 1246.9 nanomoles per gram
16:1n7 [8]: 34.2 nanomoles per gram
18:0 [8]: 528.9 nanomoles per gram
18:1n7 [8]: 164.8 nanomoles per gram
18:1n9 [8]: 383.4 nanomoles per gram
Saturates [8]: 1804.9 nanomoles per gram
Total n7 [8]: 199.0 nanomoles per gram
Total n9 [8]: 405.1 nanomoles per gram
Total nMole of [8]: 2027.9 nanomoles per gram
14:0 (Plasma, PL, mean): 0.2 percentage of total fatty acids within each lipid class
16:0 (Plasma, PL, mean): 30.9 percentage of total fatty acids within each lipid class
16:1n7 (Plasma, PL, mean): 0.9 percentage of total fatty acids within each lipid class
18:0 (Plasma, PL, mean): 11.9 percentage of total fatty acids within each lipid class
18:1n7 (Plasma, PL, mean): 3.9 percentage of total fatty acids within each lipid class
18:1n9 (Plasma, PL, mean): 7.4 percentage of total fatty acids within each lipid class
Saturates (Plasma, PL, mean): 43.9 percentage of total fatty acids within each lipid class
Total (Plasma, PL, mean): 100.0 percentage of total fatty acids within each lipid class
Total n7 (Plasma, PL, mean): 4.8 percentage of total fatty acids within each lipid class
Total n9 (Plasma, PL, mean): 8.7 percentage of total fatty acids within each lipid class
14:0 [9]: 7.7 nanomoles per gram
16:0 [9]: 1533.6 nanomoles per gram
16:1n7 [9]: 43.0 nanomoles per gram
18:0 [9]: 604.7 nanomoles per gram
18:1n7 [9]: 195.0 nanomoles per gram
18:1n9 [9]: 384.8 nanomoles per gram
Saturates [9]: 2191.4 nanomoles per gram
Total n7 [9]: 238.0 nanomoles per gram
Total n9 [9]: 449.9 nanomoles per gram
Total nMole of [9]: 2496.5 nanomoles per gram
14:0 (Plasma, TAG, mean): 1.2 percentage of total fatty acids within each lipid class
16:0 (Plasma, TAG, mean): 21.9 percentage of total fatty acids within each lipid class
16:1n7 (Plasma, TAG, mean): 7.0 percentage of total fatty acids within each lipid class
18:0 (Plasma, TAG, mean): 1.8 percentage of total fatty acids within each lipid class
18:1n7 (Plasma, TAG, mean): 4.5 percentage of total fatty acids within each lipid class
18:1n9 (Plasma, TAG, mean): 27.2 percentage of total fatty acids within each lipid class
Saturates (Plasma, TAG, mean): 25.8 percentage of total fatty acids within each lipid class
Total (Plasma, TAG, mean): 100.0 percentage of total fatty acids within each lipid class
Total n9 (Plasma, TAG, mean): 27.9 percentage of total fatty acids within each lipid class
14:0 [10]: 17.1 nanomoles per gram
16:0 [10]: 315.8 nanomoles per gram
16:1n7 [10]: 102.5 nanomoles per gram
18:0 [10]: 24.9 nanomoles per gram
18:1n7 [10]: 66.1 nanomoles per gram
18:1n9 [10]: 398.8 nanomoles per gram
Saturates [10]: 368.7 nanomoles per gram
Total n7 [10]: 168.5 nanomoles per gram
Total n9 [10]: 410.2 nanomoles per gram
Total nMole of [10]: 484.3 nanomoles per gram
